Laboratory results taken from patent publication US20060166996A1, “Phthalazine derivatives as phosphodiesterase 4 inhibitors” (Zambon Group S.P.A., priority 2002, published 2006).
≈ marks a conversion by molar mass, not a printed value.

Key:
[1] = biological target: T1, PDE 1 (Bos taurus, UniProt P14100); experiment: PDE 1 enzyme inhibition (SPA); type: biochemical; settings: PDE 1 from bovine heart (Sigma P0520); read-out: PDE 1 IC 50
T1 construct: partially purified from bovine heart; purchased Sigma P0520; host or cells: bovine heart
T1 sequence (P14100 1-514 isoform P14100-2): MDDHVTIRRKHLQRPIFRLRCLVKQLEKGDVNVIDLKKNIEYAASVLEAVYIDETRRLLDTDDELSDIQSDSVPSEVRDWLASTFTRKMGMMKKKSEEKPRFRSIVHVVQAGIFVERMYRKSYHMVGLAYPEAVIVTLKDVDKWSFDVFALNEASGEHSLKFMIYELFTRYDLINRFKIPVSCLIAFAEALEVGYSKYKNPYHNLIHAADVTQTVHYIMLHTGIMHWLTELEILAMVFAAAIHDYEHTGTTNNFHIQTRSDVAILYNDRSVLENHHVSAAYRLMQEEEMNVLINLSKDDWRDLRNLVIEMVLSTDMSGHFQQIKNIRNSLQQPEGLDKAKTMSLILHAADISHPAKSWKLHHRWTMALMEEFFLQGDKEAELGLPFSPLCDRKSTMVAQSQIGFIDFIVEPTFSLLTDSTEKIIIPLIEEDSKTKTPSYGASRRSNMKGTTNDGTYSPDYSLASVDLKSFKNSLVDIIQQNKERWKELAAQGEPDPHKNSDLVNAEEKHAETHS
Experimental: Lyophilised PDE 1 enzyme, partially purified from bovine heart, was purchased from Sigma (P0520).
The enzyme consists of the PI fraction reported by Ho et al. (Biochim Biophys Acta, 1976, vol. 429(2), 461-473).
The lyophilised enzyme was reconstituted with 30% v/v ethylene glycol at a concentration of 500 µg/ml and stored at −20° C.
PDE 1 activity was determined using the Scintillation Proximity Assay (SPA) Amersham kit consisting of tracer ^3H-cAMP, PDE assay buffer (10×solution: 500 mM TRIS/HCl pH 7.5, 83 mM MgCl2 and 17 mM EGTA) and Yttrium SPA PDE beads (containing 18 mM zinc sulphate).
(§1) The radioactivity of the beads was measured using a scintillation counter (Packard model MINAXI β TRI-CARB 4000 SERIES).

[2] = biological target: T2, PDE 2 (Rattus norvegicus, UniProt Q01062); experiment: PDE 2 enzyme inhibition (SPA); type: biochemical; settings: PDE 2 from murine PC12 cells; read-out: PDE 2 IC 50
T2 construct: Fractions containing PDE 2 enzyme activity were pooled; endogenous in cells; host or cells: PC12 cells (Istituto Zooprofilattico Brescia)
T2 sequence (Q01062 1-928): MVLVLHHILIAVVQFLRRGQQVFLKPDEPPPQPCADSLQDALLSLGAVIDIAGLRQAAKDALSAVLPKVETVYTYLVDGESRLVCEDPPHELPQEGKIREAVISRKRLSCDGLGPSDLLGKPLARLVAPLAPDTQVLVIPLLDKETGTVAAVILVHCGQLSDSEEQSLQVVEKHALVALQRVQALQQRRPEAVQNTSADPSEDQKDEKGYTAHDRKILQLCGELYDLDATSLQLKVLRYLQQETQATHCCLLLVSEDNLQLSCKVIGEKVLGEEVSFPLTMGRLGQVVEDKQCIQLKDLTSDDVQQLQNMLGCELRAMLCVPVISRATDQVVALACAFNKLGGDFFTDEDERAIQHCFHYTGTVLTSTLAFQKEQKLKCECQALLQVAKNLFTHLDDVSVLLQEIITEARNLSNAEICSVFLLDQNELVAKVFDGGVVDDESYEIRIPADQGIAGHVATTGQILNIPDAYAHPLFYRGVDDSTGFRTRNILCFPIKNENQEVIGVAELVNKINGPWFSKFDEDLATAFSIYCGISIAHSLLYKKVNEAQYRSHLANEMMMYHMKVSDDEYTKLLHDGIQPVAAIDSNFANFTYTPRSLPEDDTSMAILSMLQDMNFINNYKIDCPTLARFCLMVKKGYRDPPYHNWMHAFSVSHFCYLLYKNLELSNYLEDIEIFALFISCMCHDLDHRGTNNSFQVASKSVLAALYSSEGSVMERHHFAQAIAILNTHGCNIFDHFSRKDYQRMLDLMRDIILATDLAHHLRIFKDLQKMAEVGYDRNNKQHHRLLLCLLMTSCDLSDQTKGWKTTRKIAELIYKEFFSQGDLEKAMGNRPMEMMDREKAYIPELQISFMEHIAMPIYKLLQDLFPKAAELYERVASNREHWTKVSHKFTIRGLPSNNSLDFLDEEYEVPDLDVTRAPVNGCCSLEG
Experimental: PDE 2 was purified from murine PC12 cells according to Whalin et al. (Molecular Pharmacol. 1991, 39, 711-717).
PC12 cells from Istituto Zooprofilattico Brescia (Italy) were maintained in […] flasks at 37° C. and 5% CO2 in DMEM containing 5% FCS, 15% horse serum, 1% penicillin, 1% streptomycin and 1% glutamine.
The cells were expanded paying attention to split them only at reached confluency.
After washing the cells were detached with 0.05% trypsin/0.02%EDTA and collected in a clean test tube.
After centrifugation, the cells were suspended in buffer containing Bis-Tris 20 mM, EDTA 2 mM, 2-mercaptoethanol 5 mM, leupeptin 1 μM, pepstatin A 1 μM, PMSF 100 μM, pH 6.5, and homogenised using a Polytron homogeniser.
After centrifugation, the supernatant fraction was applied to a UNO Q-12 column connected to a Biologic Chromatography system (FPLC, BIO RAD).
PDE 2 enzyme was eluted with a linear 0.05-1M sodium acetate gradient and elution fractions were collected for PDE 2 enzyme activity assay.
Fractions containing PDE 2 enzyme activity were pooled, dialysed overnight against distilled water and concentrated 10 times by an Amicon filtration system (using YM10 membrane filter).
Ethylene glycol was added to a final concentration of 30% v/v and the solution stored at −20° C.
Enzymatic activity was stable for several weeks under these conditions.
PDE 2 activity assay was performed using Scintillation Proximity Assay (SPA) Amersham kit consisting of tracer ^3H-cAMP, PDE assay buffer (10×solution: 500 mM TRIS/HCl pH 7.5, 83 mM MgCl2 and 17 mM EGTA) and Yttrium SPA PDE beads (containing 18 mM zinc sulphate).
as §1

[3] = Solubility test by HPLC in PBS pH 7.4; type: physicochemical; settings: PBS pH 7.4, HPLC against standard, compounds of formula I; for solubility kinetic: PBS (phosphate buffer saline), aqueous buffer, kinetic from dmso stock
Experimental: HPLC method used to test the solubility.
Solubility test was performed by HPLC analysis (column 4.6×15 mm) water/0.1% TFA —CH3CN/0.06% TFA gradient) against standard.
A […] solution of the substance dissolved in DMSO was prepared.
In order to prepare the sample 190 μl of PBS (Phosphate Buffer Saline, pH 7.4) were added to 10 μl of the above solution; instead (while) in order to prepare the standard 190 μl of DMSO to other 10 μl of solution were added.

[4] = Pharmacokinetic study in rats; type: in vivo; settings: for PK rat t/2: 10 mg/kg oral or 3 mg/kg intravenously, mixture of 3-5 compounds; for bioavailability: plasma, rat, oral 10 mg/kg in N-methylglucosamine/PG/Tween 80 (physiologic vehicle), read-out: PK rat % F
Experimental: A mixture containing 3-5 compounds according to what described by Ward K. W. et al. (Drug Metab. Dispos. 2001, vol. 29, 82-88) was administered to rats at 10 mg/kg dosage by oral route (1 mg/ml in 77% N-methylglucosamine 25 mM and 20% PG containing 3% Tween 80) or 3 mg/kg intravenously (3 mg/ml in 15% DMSO/85% PEG).
The animals received only one treatment per study.
The rats permanently implanted with jugular catheter (Silastic®, Dow Corning) were treated with the test mixture by an intravenous bolus (via implanted catheter) or by oral gavage. Blood samples were collected from the jugular catheter at different times up to 6 h after administration.
Plasma samples were analyzed after protein precipitation by two volumes of CH3CN and plasma concentrations were determined by liquid chromatography/mass spectrometry.
Being poor the solubility of the compounds comprised in the general formula of the international patent application WO 00/05218, it was necessary to performe the pharmacokinetic studies using a 15% DMSO/85% PEG solution of the compounds both for intravenous and for oral route, i.e. by an absolutely non physiological vehicle.

SMILES	IC50 [1]	IC50 [2]	solubility kinetic [3]	Sol. [3]	PK rat t/2 [4]	bioavailability [4]
COc1ccc2c(Cc3c(Cl)cncc3Cl)nnc(-c3cccc(C(=O)O)c3)c2c1 [Compound 2, 3-[4-(3,5-dichloro-pyridin-4-ylmethyl)-7-methoxy-phthalazin-1-yl]-benzoic Acid]	> 10 µM	> 10 µM	0.216 mg/mL (≈ 491 µM)	482.14 µM	132 min	43%
O=C(O)c1cccc(-c2nnc(Cc3c(Cl)cncc3Cl)c3ccc(OC(F)F)cc23)c1 [Compound 8, 3-[4-(3,5-dichloro-pyridin-4-ylmethyl)-7-difluoromethoxy-phthalazin-1-yl]-benzoic Acid]	> 10 µM	> 10 µM	0.47 mg/mL (≈ 987 µM)	987.39 µM	66 min	41%
COc1ccc2c(Cc3c(Cl)cncc3Cl)nnc(-c3sccc3C(=O)O)c2c1 [Compound 10, 2-[4-(3,5-dichloro-pyridin-4-ylmethyl)-7-methoxy-phthalazin-1-yl]-thiophene-3-carboxylic Acid]	> 10 µM	> 10 µM	0.253 mg/mL (≈ 567 µM)	567.26 µM	21 min	7%
